Assay: recombinant barcode read abundance after kanamycin selection (control-corrected) (log10(CPM+1)); higher = more efficient recombination; sequences stand for … in AGTGCAGAGAAAATCGGCCAGTTTTCTCTGCCTGCAGTCCGCATGCCGT…AGATTTATGCAGCGGACTGCCTTTCTCCCAAAGTGATAAACCGGACAGTATCATGGACCGGTTTTCCCGGTAATCCGTATTTGCAAGGTTGGTTTCACT; site = the 11-nt target
Summary of the method: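 The screen was pooled in E. coli and paired targets with IS621 bridge RNA target-binding loops. Recombination efficiency is taken from barcode counts per million at recombinant junctions, averaged and adjusted against the control. Values, in the form log10(CPM+1), come from duplicate plating on chloramphenicol/ampicillin LB agar or on chloramphenicol/ampicillin/kanamycin with 0.1 mM IPTG.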
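Note: IS621 recombinase and bridge RNA in Escherichia coli cells.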

Row | Sequence | recombinant barcode read abundance (log10)
1 | CAAGGGACTTGGGTTCTAACCTGTTGCGG (site CAAGGGACTCC) | 2.33
2 | CAAGGGACTTGGGTTCTAACCTGTTGCGG (site CAGGGGACTCG) | 0.0306
3 | CAAGTCCCTTGGGTTCTAACCTGTTGCCT (site AAAGTCCCTAG) | 0.0441
4 | CAAGTCCCTTGGGTTCTAACCTGTTGCCT (site CAAGTCCCTAG) | 1.9
5 | CAAGTCCCTTGGGTTCTAACCTGTTGCCT (site GAAGTCCCTAG) | 0.207
6 | CAAGTCCCTTGGGTTCTAACCTGTTGCCT (site TAAGTCCCTAG) | 0.211
7 | CAAGTCGCTTGGGTTCTAACCTGTTGCCT (site CAAGTAGCTAG) | 0.219
8 | CAAGTCGCTTGGGTTCTAACCTGTTGCCT (site CAAGTCGCTAG) | 1.29
9 | CAAGTCGCTTGGGTTCTAACCTGTTGCCT (site CAAGTGGCTAG) | 0.458
10 | CAAGTCGCTTGGGTTCTAACCTGTTGCCT (site CAAGTTGCTAG) | 0.0227
11 | CAATCCTCTTGGGTTCTAACCTGTTGCCT (site AAATCCTCTAG) | 0.0785
12 | CAATCCTCTTGGGTTCTAACCTGTTGCCT (site CAATCCTCTAG) | 1.2
13 | CAATCCTCTTGGGTTCTAACCTGTTGCCT (site GAATCCTCTAG) | 0.0242
14 | CAATCCTCTTGGGTTCTAACCTGTTGCCT (site TAATCCTCTAG) | 0.127
15 | CAATCCTCTTGGGTTCTAACCTGTTGCTA (site CAATCCTCTTA) | 0.443
16 | CAATCCTCTTGGGTTCTAACCTGTTGCTA (site TCTGTAACTAG) | 0.0981
17 | CAATGGCCTTGGGTTCTAACCTGTTGCCT (site CAAAGGCCTAG) | 0.126
18 | CAATGGCCTTGGGTTCTAACCTGTTGCCT (site CAACGGCCTAG) | 0.253
19 | CAATGGCCTTGGGTTCTAACCTGTTGCCT (site CAAGGGCCTAG) | 0.27
20 | CAATGGCCTTGGGTTCTAACCTGTTGCCT (site CAATGGCCTAG) | 0.571
21 | CACAAAGCTTGGGTTCTAACCTGTTGCCT (site CACAAAGCTAG) | 0.84
22 | CACAAAGCTTGGGTTCTAACCTGTTGCCT (site CACACAGCTAG) | 0.143
23 | CACAACACTTGGGTTCTAACCTGTTGCCT (site CACAACACTAG) | 1.84
24 | CACAACACTTGGGTTCTAACCTGTTGCCT (site CACACCACTAG) | 0.287
25 | CACAACACTTGGGTTCTAACCTGTTGCCT (site CACAGCACTAG) | 0.0135
26 | CACAACACTTGGGTTCTAACCTGTTGCCT (site CACATCACTAG) | 0.0296

Row | Sequence | recombinant barcode read abundance (log10)
27 | CACAAGTCTTGGGTTCTAACCTGTTGCGT (site CACAAGTCTAC) | 1.38
28 | CACAAGTCTTGGGTTCTAACCTGTTGCGT (site CACCAGTCTCC) | 0.0392
29 | CACACCACTTGGGTTCTAACCTGTTGCCT (site CACAACACTAG) | 0.243
30 | CACACCACTTGGGTTCTAACCTGTTGCCT (site CACACCACTAG) | 0.698
31 | CACACCACTTGGGTTCTAACCTGTTGCCT (site CACAGCACTAG) | 0.211
32 | CACACCACTTGGGTTCTAACCTGTTGCCT (site CACATCACTAG) | 0.108
33 | CACACCGCTTGGGTTCTAACCTGTTGCCT (site CACACCGCTAG) | 1.62
34 | CACACCGCTTGGGTTCTAACCTGTTGCCT (site CACACGGCTAG) | 0.0403
35 | CACACTCCTTGGGTTCTAACCTGTTGCAG (site CACACTCCTCT) | 0.498
36 | CACACTCCTTGGGTTCTAACCTGTTGCAG (site CAGACGCCTCT) | 0.193
37 | CACAGTGCTTGGGTTCTAACCTGTTGCCT (site CACAGTGCTAG) | 0.235
38 | CACAGTGCTTGGGTTCTAACCTGTTGCCT (site CAGAGTACTAG) | 0.0936
39 | CACATACCTTGGGTTCTAACCTGTTGCCG (site CACATACCTAC) | 0.0694
40 | CACATACCTTGGGTTCTAACCTGTTGCCG (site CACATACCTCG) | 0.443
41 | CACATACCTTGGGTTCTAACCTGTTGCGT (site CACATACCTAC) | 1.92
42 | CACATACCTTGGGTTCTAACCTGTTGCGT (site CACATACCTCG) | 0.0777
43 | CACATCGCTTGGGTTCTAACCTGTTGCCT (site CACATCGCTAG) | 1.08
44 | CACATCGCTTGGGTTCTAACCTGTTGCCT (site TACTTCGCTAG) | 0.155
45 | CACATGGCTTGGGTTCTAACCTGTTGCCG (site CACAGGGCTCC) | 0.159
46 | CACATGGCTTGGGTTCTAACCTGTTGCCG (site CACATGGCTCG) | 0.259
47 | CACCAACCTTGGGTTCTAACCTGTTGCCT (site CACCAAACTAG) | 0.112
48 | CACCAACCTTGGGTTCTAACCTGTTGCCT (site CACCAACCTAG) | 0.313
49 | CACCAGTCTTGGGTTCTAACCTGTTGCGG (site CACAAGTCTAC) | 0.0664
50 | CACCAGTCTTGGGTTCTAACCTGTTGCGG (site CACCAGTCTCC) | 2.14
51 | CACCCTACTTGGGTTCTAACCTGTTGCCT (site AACCCTACTAG) | 0.04
52 | CACCCTACTTGGGTTCTAACCTGTTGCCT (site CACCCTACTAG) | 1.26

Row | Sequence | recombinant barcode read abundance (log10)
53 | CACCCTACTTGGGTTCTAACCTGTTGCCT (site GACCCTACTAG) | 0.0997
54 | CACCCTACTTGGGTTCTAACCTGTTGCCT (site TACCCTACTAG) | 0.0523
55 | CACCGTCCTTGGGTTCTAACCTGTTGCGT (site CACCGTCCTAC) | 3.03
56 | CACCGTCCTTGGGTTCTAACCTGTTGCGT (site CACCGTCCTAT) | 1.57
57 | CACCTGACTTGGGTTCTAACCTGTTGCCG (site CACCTGACTCG) | 0.599
58 | CACCTGACTTGGGTTCTAACCTGTTGCCG (site CACCTGTCTCG) | 0.0187
59 | CACCTGTCTTGGGTTCTAACCTGTTGCGG (site AGATATACTAA) | 0.0793
60 | CACCTGTCTTGGGTTCTAACCTGTTGCGG (site CACCTGTCTCC) | 1.8
61 | CACGATCCTTGGGTTCTAACCTGTTGCTT (site AGTCGGACTGT) | 0.11
62 | CACGATCCTTGGGTTCTAACCTGTTGCTT (site CACGATCCTAA) | 1.52
63 | CACGCAACTTGGGTTCTAACCTGTTGCTT (site CACGCAACTAA) | 0.476
64 | CACGCAACTTGGGTTCTAACCTGTTGCTT (site GAGGCAACTAA) | 0.888
65 | CACTATCCTTGGGTTCTAACCTGTTGCCT (site CAATATCCTAG) | 0.0585
66 | CACTATCCTTGGGTTCTAACCTGTTGCCT (site CACTATCCTAG) | 2.16
67 | CACTATCCTTGGGTTCTAACCTGTTGCCT (site CAGTATCCTAG) | 0.157
68 | CACTATCCTTGGGTTCTAACCTGTTGCCT (site CATTATCCTAG) | 0.0363
69 | CACTCTGCTTGGGTTCTAACCTGTTGCCT (site CAATCTGCTAG) | 0.617
70 | CACTCTGCTTGGGTTCTAACCTGTTGCCT (site CACTCTGCTAG) | 0.569
71 | CACTCTGCTTGGGTTCTAACCTGTTGCCT (site CAGTCTGCTAG) | 0.0477
72 | CACTCTGCTTGGGTTCTAACCTGTTGCCT (site CATTCTGCTAG) | 0.332
73 | CACTGGGCTTGGGTTCTAACCTGTTGCAG (site CACTGGGCTCT) | 0.791
74 | CACTGGGCTTGGGTTCTAACCTGTTGCAG (site CACTTGGCTCT) | 0.115
75 | CACTGTTCTTGGGTTCTAACCTGTTGCCT (site CACTGATCTAG) | 0.325
76 | CACTGTTCTTGGGTTCTAACCTGTTGCCT (site CACTGCTCTAG) | 0.0508
77 | CACTGTTCTTGGGTTCTAACCTGTTGCCT (site CACTGGTCTAG) | 0.069

From the supplement of paper PMC11208160
